# Data reported in PubChem BioAssay AID493126 (Sanford-Burnham Center for Chemical Genomics, 2011).
# Active and inactive are the calls of the source. How the calls were made is not given here.
# Target: Alkaline phosphatase, germ cell type (Homo sapiens) (UniProt P10696)
# Assay: PLAP enzyme activity modulators, SAR follow-up, selectivity assay for human IAP activator project, biochemical (AID 493126)
# Settings: purified PLAP enzyme, counter-screen
# Alkaline phosphatase, germ cell type (Homo sapiens), sequence (P10696 whole entry, looked up): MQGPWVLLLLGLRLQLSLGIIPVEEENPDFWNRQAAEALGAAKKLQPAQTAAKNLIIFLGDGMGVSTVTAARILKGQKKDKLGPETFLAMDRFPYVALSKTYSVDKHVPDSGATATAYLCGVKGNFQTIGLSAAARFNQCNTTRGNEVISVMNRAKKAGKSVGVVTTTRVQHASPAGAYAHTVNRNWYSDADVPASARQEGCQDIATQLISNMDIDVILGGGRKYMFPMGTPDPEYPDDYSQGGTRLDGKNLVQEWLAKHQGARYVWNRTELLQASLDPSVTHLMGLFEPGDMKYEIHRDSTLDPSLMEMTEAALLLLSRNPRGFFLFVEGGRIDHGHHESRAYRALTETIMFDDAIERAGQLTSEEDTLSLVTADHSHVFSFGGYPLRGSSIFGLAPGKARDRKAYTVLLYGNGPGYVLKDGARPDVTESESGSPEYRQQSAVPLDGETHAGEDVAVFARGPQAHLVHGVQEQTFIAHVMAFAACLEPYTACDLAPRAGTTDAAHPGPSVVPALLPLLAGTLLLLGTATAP
row,IC50 (inhibition of PLAP activity),SMILES
1,> 100 µM (inactive),O=C(N/N=C\c1ccc2c(c1)OCO2)C(=O)N/N=C/c1ccc2c(c1)OCO2
2,11.5 µM,O=C(N/N=C/c1cc(Br)ccc1O)c1cc(C2CC2)[nH]n1
3,6.41 µM,Cc1ccc(-c2cc(C(=O)NN=Cc3ccccc3O)n[nH]2)o1
4,8.62 µM,O=C(N/N=C/c1ccccc1O)c1cc(C2CC2)[nH]n1
5,10.3 µM,CC1C(=O)NN=C1C(=O)NN=Cc1ccc(O)cc1O (stereo unspecified)
6,8.61 µM,COc1cccc(C=NNC(=O)C(=O)NN=Cc2cccc(OC)c2O)c1O
7,32.9 µM,O=C(NN=Cc1ccccc1)C(=O)NN=Cc1ccccc1
8,> 100 µM (inactive),CCCCOc1ccc(/C=N/NC(=O)C(=O)N/N=C/c2ccc(OCCCC)cc2)cc1
9,> 100 µM (inactive),Cc1cc(C(=O)NN=Cc2cc(Cl)cc([N+](=O)[O-])c2O)n[nH]1
10,> 100 µM (inactive),COc1ccc(-c2cc(C(=O)NN=Cc3c(O)ccc4ccccc34)[nH]n2)cc1
11,9.66 µM,Cn1cccc1-c1cc(C(=O)NN=Cc2cc(Br)ccc2O)[nH]n1
12,8.16 µM,C/C(=N\NC(=O)c1cc(C)[nH]n1)c1ccc2ccccc2c1O
13,> 100 µM (inactive),O=C(N/N=C/c1c(O)ccc2ccccc12)C(=O)N/N=C/c1c(O)ccc2ccccc12
14,56.1 µM,O=C(N/N=C\c1cccc(O)c1)C(=O)N/N=C/c1cccc(O)c1
15,8.33 µM,O=C(N/N=C/c1ccccc1O)c1n[nH]c2c1CCC2
16,10.2 µM,CC(=O)Nc1cccc(C(=O)NNC(=O)c2n[nH]c(=O)c3ccccc23)c1
17,> 100 µM (inactive),COC(=O)c1ccc(/C=N/NC(=O)C(=O)N/N=C/c2ccc(C(=O)OC)cc2)cc1
18,9.56 µM,CC(C)C(=O)NC(=S)Nc1ccccc1C(=O)Nc1ccccc1
19,8.67 µM,COc1cccc(C=NNC(=O)c2cc(-c3cccn3C)n[nH]2)c1O

row,IC50 (inhibition of PLAP activity),SMILES
1,7.02 µM,CCOc1cccc(C=NNC(=O)c2cc(C3CC3)[nH]n2)c1O
2,58.1 µM,O=C(N/N=C/c1ccccc1C(=O)O)C(=O)N/N=C/c1ccccc1C(=O)O
3,> 100 µM (inactive),Cc1cc(C(=O)NN=Cc2cccc([N+](=O)[O-])c2O)n[nH]1
4,> 100 µM (inactive),COc1ccc(/C=N/NC(=O)C(=O)N/N=C/c2ccc(OC)c(OC)c2)cc1OC
5,23.7 µM,O=C(CCN1C(=O)/C(=C/c2ccccc2Cl)SC1=S)NNC(=O)c1ccccc1O
6,11 µM,O=C(NC(=S)NNC(=O)c1ccccc1O)c1ccc(F)cc1
7,> 100 µM (inactive),COc1cc(/C=N/NC(=O)C(=O)N/N=C/c2cc(OC)c(OC)c(OC)c2)cc(OC)c1OC
8,14.6 µM,Cc1ccc(O)c(C=NNC(=O)c2[nH]ncc2Br)c1
9,52.3 µM,CC(C)Oc1ccccc1/C=N/NC(=O)C(=O)N/N=C/c1ccccc1OC(C)C
10,10.3 µM,Cc1cc(C(=O)N/N=C/c2cc(Br)ccc2O)n[nH]1
11,> 100 µM (inactive),CCN(CC)c1ccc(/C=N/NC(=O)C(=O)N/N=C/c2ccc(N(CC)CC)cc2O)c(O)c1
12,12.1 µM,COc1cccc(C=NNC(=O)c2[nH]nc3c2CCc2ccccc2-3)c1O
13,> 100 µM (inactive),O=C(N/N=C/c1ccc2c(c1)OCO2)C(=O)N/N=C/c1ccc2c(c1)OCO2
14,8.02 µM,COc1cccc(C=NNC(=O)C2=NNC(=O)C2C)c1O (stereo unspecified)
15,31.8 µM,O=C(N/N=C/c1c(O)ccc2ccccc12)c1cc(-c2cccs2)[nH]n1
16,> 100 µM (inactive),COc1cc(OC)c(OC)cc1/C=N/NC(=O)C(=O)N/N=C/c1cc(OC)c(OC)cc1OC
17,> 100 µM (inactive),CC(=NNC(=O)C(=O)NN=C(C)c1cccc(O)c1)c1cccc(O)c1
18,> 100 µM (inactive),COc1ccc(-c2csc(Nc3cccc4ccccc34)n2)cc1F
19,46.8 µM,COc1cc(/C=N/NC(=O)C(=O)N/N=C/c2ccc(O)c(OC)c2)ccc1O

row,IC50 (inhibition of PLAP activity),SMILES
1,> 100 µM (inactive),CC(=O)Nc1ccc(/C=N/NC(=O)C(=O)N/N=C/c2ccc(NC(C)=O)cc2)cc1
2,15 µM,O=C(NNC(=S)NC(=O)c1ccccc1[N+](=O)[O-])c1ccccc1O
3,> 100 µM (inactive),COc1cc(/C=N\NC(=O)C(=O)N/N=C/c2cc(OC)c(O)c(OC)c2)cc(OC)c1O
4,0.87 µM,O=C1Nc2ccc(Br)cc2C12NNc1ccccc1O2 (stereo unspecified)
5,7.02 µM,Cc1cc(C(=O)N/N=C\c2cc(C(C)(C)C)ccc2O)n[nH]1
6,9.86 µM,CCOc1cccc(C=NNC(=O)c2cc(-c3cccn3C)n[nH]2)c1O
7,> 100 µM (inactive),O=C(NN=Cc1ccc(O)cc1O)C(=O)NN=Cc1ccc(O)cc1O
8,6.83 µM,OC(c1nc2ccc(F)cc2[nH]1)C(O)c1nc2ccc(F)cc2[nH]1 (stereo unspecified)
9,7.57 µM,C/C(=N\NC(=O)c1[nH]nc2c1CCc1ccccc1-2)c1ccccc1O
10,> 100 µM (inactive),CN(C)c1ccc(/C=N/NC(=O)C(=O)N/N=C/c2ccc(N(C)C)cc2)cc1
11,> 100 µM (inactive),CCOc1cc(/C=N/NC(=O)C(=O)N/N=C/c2ccc(O)c(OCC)c2)ccc1O
12,28.7 µM,COc1cccc(C=NNC(=O)C(=O)NN=Cc2cccc(OC)c2OC)c1OC
13,9.49 µM,COc1cc(OC)cc(C(=O)NNC(=O)c2nn(C)c(=O)c3ccccc23)c1
14,> 100 µM (inactive),N#CCOc1ccccc1/C=N/NC(=O)C(=O)N/N=C/c1ccccc1OCC#N
15,> 100 µM (inactive),O=C(N/N=C/c1cc(Br)ccc1O)C(=O)N/N=C/c1cc(Br)ccc1O
16,53.2 µM,COc1ccc(OC)c(/C=N/NC(=O)C(=O)N/N=C/c2cc(OC)ccc2OC)c1
17,> 100 µM (inactive),O=C(NN=Cc1c(O)ccc2ccccc12)c1[nH]ncc1Br
18,> 100 µM (inactive),O=C(N/N=C/c1ccc(O)cc1)C(=O)N/N=C/c1ccc(O)cc1
